Experimental data: ChEMBL document CHEMBL3886955, “Pyrrolidine derivatives and their use as complement pathway modulators” (2016)

Target: Complement factor D (Homo sapiens, UniProt P00746)
Experiment: In Vitro Assay: Method 1: Recombinant human factor D (expressed in E. coli and purified using standard methods) at 10 nM concentration is incubated with test compound at various concentrations for 1 hour at room temperature in 0.1 M Hepes buffer, pH 7.5, containing 1 mM MgCl2, 1 M NaCl and 0.05% CHAPS. A synthetic substrate Z-Lys-thiobenzyl and 2,4-dinitrobenzenesulfonyl-fluoresceine are added to final concentrations of 200 μM and 25 μM, respectively. The increase in fluorescence is recorded at excitation of 485 nm and emission at 535 nm in a microplate spectrofluorimeter. IC50 values are calculated from percentage of inhibition of complement factor D-activity as a function of test compound concentration.

Sequence of Complement factor D (P00746 whole entry): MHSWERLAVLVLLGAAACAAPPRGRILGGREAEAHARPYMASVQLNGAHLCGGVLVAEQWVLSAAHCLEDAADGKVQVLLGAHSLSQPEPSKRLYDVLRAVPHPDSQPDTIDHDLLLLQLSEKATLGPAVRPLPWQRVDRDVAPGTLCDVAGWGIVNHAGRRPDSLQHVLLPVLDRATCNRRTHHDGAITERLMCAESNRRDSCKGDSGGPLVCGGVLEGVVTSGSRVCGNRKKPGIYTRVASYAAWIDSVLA

**Q.** Which IC50 does the source give for `CC(C)=C(F)CNC(=O)[C@@H]1C[C@H]2C[C@H]2N1C(=O)Nc1cn(C(N)=O)c2ccccc12` here?
**A.** 24 nM
